In ChEMBL document CHEMBL1127205, “Synthesis and anticonvulsant activity of 3-arylamino-4-aryl-5-(N-4-chlorophenylthiocarbamido)-1,2,4-thiadiazoles” (Bioorg Med Chem Lett, 1993):

Experiments:
[1] = system: Rattus norvegicus; test: Sleeping time was determined in rats after administration of compound; NS non-significant; type: functional
[2] = species: Rattus norvegicus; test: % protection was measured in rats using maximal electroshock seizure test; type: functional
[3] = Tested for therapeutic index of compound (LD50/MES ED50); conditions: rat; read-out: TI
[4] = system: Rattus norvegicus; test: % protection was measured in rats using subcutaneous pentylenetetrazole seizure test; type: functional; design: concentration or dose not given beside the values
[5] = species: Rattus norvegicus; test: Effective dose was measured in rats using maximal electroshock seizure test; type: functional
[6] = Acute toxicity was measured in rats using maximal electroshock seizure test; conditions: rat, in vivo
[7] = system: Rattus norvegicus; test: Effective dose was measured in rats using subcutaneous pentylenetetrazole seizure test; type: functional; conditions: sc
[8] = species: Rattus norvegicus; test: The activity was measured by using barbiturate hypnosis potentiation effect test; type: functional
[9] = species: Rattus norvegicus; test: % protection was measured in rats using maximal electroshock seizure test; p<0.05; type: functional
[10] = system: Rattus norvegicus; test: Sleeping time was determined in rats after administration of compound; non-significant; type: functional
[11] = system: Rattus norvegicus; test: Effective dose was measured in rats using maximal electroshock seizure test(ip); showed no protection up to 120 mg/kg (i.p. dose); type: functional, organism-based; design: dose 120 mg/kg
[12] = system: Rattus norvegicus; test: Sleeping time was determined in rats at 30 mg/kg intraperitoneal dose; type: functional
[13] = system: Rattus norvegicus; test: Effective dose was measured in rats using maximal electroshock seizure test(ip); showed no protection up to 100 mg/kg (i.p. dose); type: functional, organism-based; design: dose 100 mg/kg
[14] = species: Rattus norvegicus; test: % protection was measured in rats using maximal electroshock seizure test; p<0.01; type: functional
[15] = system: Rattus norvegicus; test: % protection was measured in rats using subcutaneous pentylenetetrazole seizure test; p<0.05; type: functional
[16] = system: Rattus norvegicus; test: Sleeping time was determined in rats after administration of compound; p<0.05; type: functional

Work on `COc1ccc(Nc2ns/c(=N\C(S)=N\c3ccc(Cl)cc3)n2-c2ccc(OC)cc2)cc1` yielded a Sleeping time [1] of 67.3 min, a Protection [2] of 50% and a selectivity ratio [3] of 10.3. It also gave a Protection [4] of 0%, an ED50 [5] of 20.3 mg/kg and an LD50 [6] of 210 mg/kg. The ED50 [7] was 150 mg/kg and the Hypnosis potentiation [8] was 3.14%.
In the case of `S=C(/N=c1\snc(Nc2cccc(Cl)c2)n1-c1cccc(Cl)c1)Nc1ccc(Cl)cc1`, the Protection [9] is reported as 75%, the selectivity ratio [3] is reported as 6.85 and the Protection [4] is reported as 75%. The ED50 [5] was 17.5 mg/kg, the Sleeping time [10] was 69.15 min and the LD50 [6] was 120 mg/kg. It also gave an ED50 [7] of 26.2 mg/kg and a Hypnosis potentiation [8] of 5.97%.
In the case of `Cc1ccc(Nc2ns/c(=N\C(S)=N\c3ccc(Cl)cc3)n2-c2ccc(C)cc2)cc1`, the Protection [2] is reported as 50%, the selectivity ratio [3] is reported as 6.42 and the Protection [4] is reported as 0%. The ED50 [5] was 46.7 mg/kg, the ED50 [11] was “no protection up to 120 mg/kg” and the Sleeping time [10] was 75.45 min. It also gave an LD50 [6] of 300 mg/kg and a Hypnosis potentiation [8] of 15.63%.
For `CCCC(C)C1(CC)C(=O)N=C([O-])NC1=O.[Na+]` (stereo unspecified) [PENTOBARBITAL SODIUM], the Sleeping time [12] was 65.25 min.
With `Cc1cccc(Nc2ns/c(=N\C(S)=N\c3ccc(Cl)cc3)n2-c2cccc(C)c2)c1` the ED50 [13] was “no protection up to 100 mg/kg”, the Protection [2] was 0% and the Protection [4] was 0%. The ED50 [11] was “no protection up to 100 mg/kg”.
Compound `S=C(/N=c1\snc(Nc2ccc(Cl)cc2)n1-c1ccc(Cl)cc1)Nc1ccc(Cl)cc1` has a Protection [14] of 87.5%, a selectivity ratio [3] of 11.7 and an ED50 [5] of 10 mg/kg. For the same compound, the Sleeping time [10] was 72.81 min, the LD50 [6] was 117 mg/kg and the ED50 [7] was 22.1 mg/kg. For the same compound, the Hypnosis potentiation [8] was 11.58% and the Protection [15] was 75%.
Compound `S=C(/N=c1\snc(Nc2ccccc2Cl)n1-c1ccccc1Cl)Nc1ccc(Cl)cc1` has a Sleeping time [1] of 78.68 min, a Protection [9] of 75% and a selectivity ratio [3] of 14.6. For the same compound, the Protection [4] was 0%, the ED50 [5] was 12 mg/kg and the LD50 [6] was 175 mg/kg. For the same compound, the ED50 [7] was 35.1 mg/kg and the Hypnosis potentiation [8] was 20.58%.
In the case of `COc1cccc(Nc2ns/c(=N\C(S)=N\c3ccc(Cl)cc3)n2-c2cccc(OC)c2)c1`, the ED50 [13] is reported as “no protection up to 100 mg/kg”, the Protection [2] is reported as 0% and the Protection [4] is reported as 0%. For the same compound, the ED50 [11] was “no protection up to 100 mg/kg”.
Compound `S=C(/N=c1\snc(Nc2ccccc2)n1-c1ccccc1)Nc1ccc(Cl)cc1` has a Protection [2] of 25%, a selectivity ratio [3] of 3.26 and a Protection [4] of 0%. The ED50 [5] was 76.5 mg/kg, the Sleeping time [10] was 68.5 min and the LD50 [6] was 250 mg/kg. For the same compound, the Hypnosis potentiation [8] was 4.98%.
For `COc1ccccc1Nc1ns/c(=N\C(S)=N\c2ccc(Cl)cc2)n1-c1ccccc1OC`, the ED50 [13] was “no protection up to 100 mg/kg”, the Protection [2] was 0% and the Protection [4] was 0%. For the same compound, the ED50 [11] was “no protection up to 100 mg/kg”.
For `Cc1ccccc1Nc1ns/c(=N\C(S)=N\c2ccc(Cl)cc2)n1-c1ccccc1C`, the ED50 [13] was “no protection up to 100 mg/kg”, the Protection [2] was 0% and the Protection [4] was 0%. For the same compound, the ED50 [11] was “no protection up to 100 mg/kg”.
`O=C1NC(=O)C(c2ccccc2)(c2ccccc2)N1` [PHENYTOIN] gave a Protection [9] of 75%, a Sleeping time [16] of 100.5 min and a Protection [4] of 37.5%. For the same compound, the ED50 [5] was 9.5 mg/kg, the LD50 [6] was 65.5 mg/kg and the ED50 [7] was 100 mg/kg. It also gave a Hypnosis potentiation [8] of 54.02%.
